Assay results reported in patent publication US11504355B2, “Ergothioneine compositions and methods for maintaining and/or increasing vitamin C levels in cells and organisms” (Mironova Innovations, LLC, priority 2018, dated 2022).

Test system: Human skin fibroblasts
Assay: Ascorbic acid colorimetric assay in human skin fibroblasts, with or without alloxan-induced oxidative stress
Format: cell-based
Protocol: This example provides methods and results from studies evaluating the effect of ergothioneine on vitamin C in human fibroblast cells. Human skin fibroblasts were cultured for 18 hours in T-25 flasks. Cells were incubated with 1) control solution, 2) magnesium ascorbyl phosphate, or 3) magnesium ascorbyl phosphate+ergothioneine (1:100). Cells in each group were then treated for 6 hours with a) control solution or b) 500 μM alloxan to induce oxidative stress. All samples were assayed for ascorbic acid with an ascorbic acid colorimetric assay (Biovision catalog no. K671). Results are provided in the table below, where ascorbic acid content (nmol) in human skin fibroblasts per one million cells is reported.

[1] = 0.158% of test solution, no alloxan
[2] = 0.158% of test solution, with 500 uM Alloxan (6 hours, oxidative stress)
[3] = 0.5% of test solution, no alloxan
[4] = 0.5% of test solution, with 500 uM Alloxan (6 hours, oxidative stress)
[5] = 1.58% of test solution, no alloxan
[6] = 1.58% of test solution, with 500 uM Alloxan (6 hours, oxidative stress)
[7] = 5% of test solution, no alloxan
[8] = 5% of test solution, with 500 uM Alloxan (6 hours, oxidative stress)

With O=C1O[C@H]([C@@H](O)CO)C([O-])=C1OP(=O)([O-])[O-].O=C1O[C@H]([C@@H](O)CO)C([O-])=C1OP(=O)([O-])[O-].[Mg+2].[Mg+2].[Mg+2] [MAP solution, magnesium ascorbyl phosphate] the “ascorbic acid content in human skin fibroblasts per one million cells, Ave” value [1] was 10.14 nmol, the “ascorbic acid content in human skin fibroblasts per one million cells, Sample A” value [1] was 9.94 nmol and the “ascorbic acid content in human skin fibroblasts per one million cells, Sample B” value [1] was 10.34 nmol. The “ascorbic acid content in human skin fibroblasts per one million cells, Ave” value [2] was 4.93 nmol, the “ascorbic acid content in human skin fibroblasts per one million cells, Sample A” value [2] was 4.84 nmol and the “ascorbic acid content in human skin fibroblasts per one million cells, Sample B” value [2] was 5.01 nmol. For the same molecule, the “ascorbic acid content in human skin fibroblasts per one million cells, Ave” value [3] was 21.51 nmol, the “ascorbic acid content in human skin fibroblasts per one million cells, Sample A” value [3] was 21.68 nmol and the “ascorbic acid content in human skin fibroblasts per one million cells, Sample B” value [3] was 21.33 nmol. The “ascorbic acid content in human skin fibroblasts per one million cells, Ave” value [4] was 9.77 nmol, the “ascorbic acid content in human skin fibroblasts per one million cells, Sample A” value [4] was 9.54 nmol and the “ascorbic acid content in human skin fibroblasts per one million cells, Sample B” value [4] was 9.99 nmol. The “ascorbic acid content in human skin fibroblasts per one million cells, Ave” value [5] was 49.89 nmol, the “ascorbic acid content in human skin fibroblasts per one million cells, Sample A” value [5] was 49.23 nmol and the “ascorbic acid content in human skin fibroblasts per one million cells, Sample B” value [5] was 50.54 nmol. For the same molecule, the “ascorbic acid content in human skin fibroblasts per one million cells, Ave” value [6] was 12.17 nmol, the “ascorbic acid content in human skin fibroblasts per one million cells, Sample A” value [6] was 11.88 nmol and the “ascorbic acid content in human skin fibroblasts per one million cells, Sample B” value [6] was 12.46 nmol. The “ascorbic acid content in human skin fibroblasts per one million cells, Ave” value [7] was 50.77 nmol, the “ascorbic acid content in human skin fibroblasts per one million cells, Sample A” value [7] was 50.20 nmol and the “ascorbic acid content in human skin fibroblasts per one million cells, Sample B” value [7] was 51.35 nmol. The “ascorbic acid content in human skin fibroblasts per one million cells, Ave” value [8] was 13.37 nmol, the “ascorbic acid content in human skin fibroblasts per one million cells, Sample A” value [8] was 13.37 nmol and the “ascorbic acid content in human skin fibroblasts per one million cells, Sample B” value [8] was 13.37 nmol.
In the case of C[N+](C)(C)[C@@H](Cc1c[nH]c(=S)[nH]1)C(=O)[O-] [ergothioneine], the “increase of ascorbic acid levels following oxidative stress” value (1:100 ergothioneine (EGT) to magnesium ascorbyl phosphate (MAP), following oxidative stress) is reported as “up to 300%”, the “ascorbic acid absorbed by the fibroblast cells with versus without ergothioneine” value (FIG. 1, no oxidative stress) is reported as “equally absorbed” and the “amount of ascorbic acid in fibroblast cells following oxidative stress in the presence of ergothioneine” value (FIG. 3, following oxidative stress) is reported as “synergistically increased”. The “boost of vitamin C levels in a cell” value (synergistic amount of ergothioneine, summary of the examples) was “three-fold or more”.
